Columns and labels:
THP-1 cells = test: Cell viability assay (CellTiter Clo) in THP-1 cells; assay type: cell-based, Human; conditions: THP-1 cells, 20 μM of each compound, co-treated with cGAMP (1 μg/ml)
Method: (§1) Human monocytic THP-1 wild-type (WT) and STING knockout (KO) cell lines were obtained from InvivoGen. Cells were cultured in 1×RPMI 1640 medium containing 10% fetal bovine serum (FBS, Hyclone), 2.05 mM L-glutamine (Hyclone) and 1% penicillin (Corning) in a humidified incubator at 37° C. under 5% CO2.
Cells were analyzed using CellTiter Clo (CTG, Promega). […] was measured using a TECAN micro plate reader SPARK. Results were normalized to DMSO control.
(§2) THP-1 cells were co-treated with each of 86 indolizine derivatives and a very small amount of cGAMP (1 μg/ml), the immune response of the THP-1 cells was examined by ISRE reporter assay, and the cytotoxicity of co-treatment was also evaluated (Table 1). All results were compared by normalization to the reporter assay results obtained by treatment with cGAMP alone. […] Thus, Compound 42 was used in subsequent experiments.

ISRE reporter signal = test: ISRE luciferase reporter assay, THP-1 cells co-treated with compound and cGAMP; assay type: cell-based, Human; conditions: THP-1 cells, 20 μM of each compound, co-treated with cGAMP (1 μg/ml), 24 hours
Method: as §1
To confirm immune responses, THP-1 cells were placed in 384-well plates (Grenier), and treated with each compound and cGAMP (1 μg/ml), and after 24 hours, ISRE activity was analyzed. QUANTI-Luc assay (InvivoGen) was performed using the cell culture supernatant to confirm the luciferase reporter gene signal. Fluorescent signals were measured using a TECAN micro plate reader SPARK, and the results were normalized to DMSO control.
as §2

CN(C)c1ccc(-c2cc(C(=O)c3ccccc3)n3ccccc23)cc1 [Compound 50]
Normalized cell viability (THP-1 cells): 1.30 | Normalized RU (relative unit of ISRE reporter signal) (ISRE reporter signal): 1.18

COc1ccc(C(=O)c2cc(-c3ccc(C(F)(F)F)cc3)c3ccccn23)cc1 [Compound 51]
Normalized cell viability (THP-1 cells): 1.32 | Normalized RU (relative unit of ISRE reporter signal) (ISRE reporter signal): 6.08

COc1ccc(C(=O)c2cc(-c3ccc(C(C)=O)cc3)c3ccccn23)cc1 [Compound 52]
Normalized cell viability (THP-1 cells): 1.15 | Normalized RU (relative unit of ISRE reporter signal) (ISRE reporter signal): 1.61

COc1ccc(C(=O)c2cc(-c3ccccc3)c3ccccn23)cc1 [Compound 53]
Normalized cell viability (THP-1 cells): 1.18 | Normalized RU (relative unit of ISRE reporter signal) (ISRE reporter signal): 1.30

COc1ccc(C(=O)c2cc(-c3ccc(OC)cc3)c3ccccn23)cc1 [Compound 54]
Normalized cell viability (THP-1 cells): 1.16 | Normalized RU (relative unit of ISRE reporter signal) (ISRE reporter signal): 1.51

COc1ccc(C(=O)c2cc(-c3ccc(N(C)C)cc3)c3ccccn23)cc1 [Compound 55]
Normalized cell viability (THP-1 cells): 1.24 | Normalized RU (relative unit of ISRE reporter signal) (ISRE reporter signal): 1.65

CCN(CC)c1ccc(C(=O)c2cc(-c3ccc(C(F)(F)F)cc3)c3ccccn23)cc1 [Compound 56]
Normalized cell viability (THP-1 cells): 1.23 | Normalized RU (relative unit of ISRE reporter signal) (ISRE reporter signal): 1.40

CCN(CC)c1ccc(C(=O)c2cc(-c3ccc(C(C)=O)cc3)c3ccccn23)cc1 [Compound 57]
Normalized cell viability (THP-1 cells): 1.40 | Normalized RU (relative unit of ISRE reporter signal) (ISRE reporter signal): 0.93

CCN(CC)c1ccc(C(=O)c2cc(-c3ccccc3)c3ccccn23)cc1 [Compound 58]
Normalized cell viability (THP-1 cells): 1.01 | Normalized RU (relative unit of ISRE reporter signal) (ISRE reporter signal): 0.66

CCN(CC)c1ccc(C(=O)c2cc(-c3ccc(OC)cc3)c3ccccn23)cc1 [Compound 59]
Normalized cell viability (THP-1 cells): 1.09 | Normalized RU (relative unit of ISRE reporter signal) (ISRE reporter signal): 1.27

CCN(CC)c1ccc(C(=O)c2cc(-c3ccc(N(C)C)cc3)c3ccccn23)cc1 [Compound 60]
Normalized cell viability (THP-1 cells): 1.28 | Normalized RU (relative unit of ISRE reporter signal) (ISRE reporter signal): 1.25

CC(=O)c1ccn2c(C(=O)c3ccccc3)cc(-c3ccncc3)c2c1 [Compound 61]
Normalized cell viability (THP-1 cells): 1.11 | Normalized RU (relative unit of ISRE reporter signal) (ISRE reporter signal): 1.98

CC(=O)c1ccn2c(C(=O)c3ccccc3)cc(-c3ccc(C)c(N)c3)c2c1 [Compound 62]
Normalized cell viability (THP-1 cells): 1.23 | Normalized RU (relative unit of ISRE reporter signal) (ISRE reporter signal): 2.86

CC(=O)c1ccn2c(C(=O)c3ccccc3)cc(-c3ccc(N)cc3)c2c1 [Compound 63]
Normalized cell viability (THP-1 cells): 0.98 | Normalized RU (relative unit of ISRE reporter signal) (ISRE reporter signal): 2.08

CCN(CC)c1ccc(-c2cc(C(=O)c3ccccc3)n3ccc(C(C)=O)cc23)cc1 [Compound 64]
Normalized cell viability (THP-1 cells): 1.24 | Normalized RU (relative unit of ISRE reporter signal) (ISRE reporter signal): 1.13

CCCN(CCC)c1ccc(-c2cc(C(=O)c3ccccc3)n3ccc(C(C)=O)cc23)cc1 [Compound 65]
Normalized cell viability (THP-1 cells): 1.25 | Normalized RU (relative unit of ISRE reporter signal) (ISRE reporter signal): 1.13

CC(=O)c1ccn2c(C(=O)c3ccccc3)cc(-c3ccc(C(=O)O)cc3)c2c1 [Compound 66]
Normalized cell viability (THP-1 cells): 1.32 | Normalized RU (relative unit of ISRE reporter signal) (ISRE reporter signal): 1.16

O=C(c1ccccc1)c1cc(-c2ccncc2)c2ccccn12 [Compound 67]
Normalized cell viability (THP-1 cells): 1.34 | Normalized RU (relative unit of ISRE reporter signal) (ISRE reporter signal): 2.03

Cc1ccc(-c2cc(C(=O)c3ccccc3)n3ccccc23)cc1N [Compound 68]
Normalized cell viability (THP-1 cells): 1.17 | Normalized RU (relative unit of ISRE reporter signal) (ISRE reporter signal): 3.16

Nc1ccc(-c2cc(C(=O)c3ccccc3)n3ccccc23)cc1 [Compound 69]
Normalized cell viability (THP-1 cells): 1.19 | Normalized RU (relative unit of ISRE reporter signal) (ISRE reporter signal): 2.47

CCN(CC)c1ccc(-c2cc(C(=O)c3ccccc3)n3ccccc23)cc1 [Compound 70]
Normalized cell viability (THP-1 cells): 1.19 | Normalized RU (relative unit of ISRE reporter signal) (ISRE reporter signal): 1.21

CCCN(CCC)c1ccc(-c2cc(C(=O)c3ccccc3)n3ccccc23)cc1 [Compound 71]
Normalized cell viability (THP-1 cells): 1.01 | Normalized RU (relative unit of ISRE reporter signal) (ISRE reporter signal): 0.96

CC(=O)c1cc(-c2ccc(C(F)(F)F)cc2)c2cc(C(F)(F)F)ccn12 [Compound 73]
Normalized cell viability (THP-1 cells): 0.78 | Normalized RU (relative unit of ISRE reporter signal) (ISRE reporter signal): 1.54

CC(=O)c1ccc(-c2cc(C(C)=O)n3ccc(C(F)(F)F)cc23)cc1 [Compound 74]
Normalized cell viability (THP-1 cells): 0.75 | Normalized RU (relative unit of ISRE reporter signal) (ISRE reporter signal): 2.06

CC(=O)c1cc(-c2ccccc2)c2cc(C(F)(F)F)ccn12 [Compound 75]
Normalized cell viability (THP-1 cells): 1.25 | Normalized RU (relative unit of ISRE reporter signal) (ISRE reporter signal): 1.76

COc1ccc(-c2cc(C(C)=O)n3ccc(C(F)(F)F)cc23)cc1 [Compound 76]
Normalized cell viability (THP-1 cells): 1.14 | Normalized RU (relative unit of ISRE reporter signal) (ISRE reporter signal): 2.02

CC(=O)c1cc(-c2ccc(N(C)C)cc2)c2cc(C(F)(F)F)ccn12 [Compound 77]
Normalized cell viability (THP-1 cells): 1.28 | Normalized RU (relative unit of ISRE reporter signal) (ISRE reporter signal): 1.24

CC(=O)c1ccn2c(C(C)=O)cc(-c3ccc(C(F)(F)F)cc3)c2c1 [Compound 78]
Normalized cell viability (THP-1 cells): 0.46 | Normalized RU (relative unit of ISRE reporter signal) (ISRE reporter signal): 2.43

CC(=O)c1ccc(-c2cc(C(C)=O)n3ccc(C(C)=O)cc23)cc1 [Compound 79]
Normalized cell viability (THP-1 cells): 1.19 | Normalized RU (relative unit of ISRE reporter signal) (ISRE reporter signal): 3.80

CC(=O)c1ccn2c(C(C)=O)cc(-c3ccccc3)c2c1 [Compound 80]
Normalized cell viability (THP-1 cells): 1.22 | Normalized RU (relative unit of ISRE reporter signal) (ISRE reporter signal): 1.98

COc1ccc(-c2cc(C(C)=O)n3ccc(C(C)=O)cc23)cc1 [Compound 81]
Normalized cell viability (THP-1 cells): 1.17 | Normalized RU (relative unit of ISRE reporter signal) (ISRE reporter signal): 2.27

CC(=O)c1ccn2c(C(C)=O)cc(-c3ccc(N(C)C)cc3)c2c1 [Compound 82]
Normalized cell viability (THP-1 cells): 1.16 | Normalized RU (relative unit of ISRE reporter signal) (ISRE reporter signal): 2.57

CC(=O)c1cc(-c2ccc(C(F)(F)F)cc2)c2ccccn12 [Compound 83]
Normalized cell viability (THP-1 cells): 1.22 | Normalized RU (relative unit of ISRE reporter signal) (ISRE reporter signal): 0.98

CC(=O)c1ccc(-c2cc(C(C)=O)n3ccccc23)cc1 [Compound 84]
Normalized cell viability (THP-1 cells): 1.10 | Normalized RU (relative unit of ISRE reporter signal) (ISRE reporter signal): 2.37

CC(=O)c1cc(-c2ccccc2)c2ccccn12 [Compound 85]
Normalized cell viability (THP-1 cells): 1.22 | Normalized RU (relative unit of ISRE reporter signal) (ISRE reporter signal): 2.90

COc1ccc(-c2cc(C(C)=O)n3ccccc23)cc1 [Compound 86]
Normalized cell viability (THP-1 cells): 1.22 | Normalized RU (relative unit of ISRE reporter signal) (ISRE reporter signal): 2.46

CC(=O)c1cc(-c2ccc(N(C)C)cc2)c2ccccn12 [Compound 87]
Normalized cell viability (THP-1 cells): 1.30 | Normalized RU (relative unit of ISRE reporter signal) (ISRE reporter signal): 2.59

From patent US20230390319A1, “INTERFERON GENE STIMULATOR COMPOSITION COMPRISING INDOLIZINE DERIVATIVE AS ACTIVE INGREDIENT” (AJOU UNIVERSITY INDUSTRY-ACADEMIC COOPERATION FOUNDATION, priority 2020, published 2023)
